According to paper PMC4170105 (Journal of nuclear medicine : official publication, Society …, 2013):
Like-named read-outs stand apart in the source and are kept apart here.

What was measured:
[1] = molecular target: T1, S1Rs (Rattus norvegicus, UniProt Q9R0C9); assay: Blocking biodistribution in rats pretreated with S1R ligands; assay type: in vivo; conditions: pretreatment 1 mg/kg
[2] = molecular target: T1, S1Rs; assay: Rat brain PET/CT imaging, baseline and BD1047 blocking; assay type: in vivo; conditions: BD1047 1 mg/kg i.v. 10 min before tracer; 50–60 min after injection
[3] = molecular target: S1Rs; conditions: cited from earlier work
[4] = system: S2Rs; conditions: no reference given, cited from earlier work
[5] = system: 5-HT2 receptors; conditions: no reference given; cited from earlier work
[6] = Stability in human liver microsomes; assay type: in vitro ADME; conditions: errors SEM
[7] = cited from earlier work
[8] = molecular target: T1, S1Rs; assay: Ex vivo autoradiography of rat brain and muscle sections; assay type: in vivo; conditions: baseline
[9] = system: S1Rs
[10] = monkey plasma
[11] = mouse liver microsomes; errors SEM; previously reported; cited from earlier work
[12] = Ex vivo stability in rat plasma and brain homogenates
[13] = Ex vivo biodistribution in rats; conditions: rat
[14] = 5 min after injection, i.v., n = 4

T1 sequence (Q9R0C9 whole entry): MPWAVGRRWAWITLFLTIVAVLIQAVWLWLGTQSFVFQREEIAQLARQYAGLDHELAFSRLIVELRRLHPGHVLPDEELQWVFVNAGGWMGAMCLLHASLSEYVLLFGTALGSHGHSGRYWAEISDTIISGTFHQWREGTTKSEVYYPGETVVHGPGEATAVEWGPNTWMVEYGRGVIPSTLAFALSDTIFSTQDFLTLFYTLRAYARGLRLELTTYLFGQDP

CN(C)CCN(C)CCc1ccc(Cl)c(Cl)c1 [BD1047]
radioactive signal in bone/skull of pretreated rats compared with baseline rats ([1]; 60 min after injection): did not display this same trend
reduction in radiotracer binding in liver, pancreas, and heart ([1]; P < 0.05, < 0.05, < 0.005): significant reduction
reduction in ^18F-FTC-146 accumulation in rat brain (PET/CT) [2]: 86%
Ki ([3]; read-out: Ki for S1Rs, no reference given): 0.93 nM
fold lower affinity for S2Rs than for S1Rs [4]: approximately 50 fold
Ki ([4]; read-out: Ki for S2Rs): 47 nM
affinity for 5-HT2 receptors [5]: low micromolar affinity

O=c1sc2cc(CCCF)ccc2n1CCN1CCCCCC1 [FTC-146]
t1/2 [6]: 18.2 min

COc1ccc(CCN2CCN(CCCc3ccccc3)CC2)cc1OC [^11C-SA4503]
unchanged radioligand in monkey plasma ([7]; 90 min after injection): 31%

COc1cc(CCN2CCN(CCCc3ccccc3)CC2)ccc1OCC[18F] [^18F-FE-SA4503]
parent compound present in monkey plasma ([7]; 120 min after injection of tracer): 23%

O=c1sc2cc(CCCF)ccc2n1CCN1CCCCCC1 [^18F-FTC-146]
Ki ([3]; read-out: affinity for S1Rs, in vitro binding): 0.0025 nM

O=c1sc2cc(CCC[18F])ccc2n1CCN1CCCCCC1 [^18F-FTC-146]
uptake in corpus callosum and muscle (autoradiography) [8]: little, if any, uptake
t1/2 [6]: 18.2 ± 3.6 min
average maximum uptake in all analyzed brain regions ([9]; monkey, in vivo, 0.25 h): approximately 0.4 %ID/g
uptake in cerebellum ([9]; monkey, in vivo, 1 h): 0.27 %ID/g
uptake in occipital cortex ([9]; monkey, in vivo, 1 h): 0.27 %ID/g
uptake in striatum ([9]; monkey, in vivo, 1 h): 0.20 %ID/g
brain uptake level after gradual washout ([9]; monkey, in vivo, 2 h): approximately 0.25 %ID/g
intact ^18F-FTC-146 in plasma ([10]; 5 min): 60%
intact ^18F-FTC-146 in plasma ([10]; 15 min): 35%
intact parent tracer in plasma (lower plateau) ([10]; between 50 and 110 min): 15%
t1/2 [11]: 4.2 ± 0.6 min
percentage intact radiotracer in plasma ([12]; 15 min after injection): 27.1% ± 5.3%
percentage intact radiotracer in plasma ([12]; 30 min after injection): 25.3% ± 1.3%
percentage intact radiotracer in plasma ([12]; 60 min after injection): 19.5% ± 4.4%
time of peak uptake in the brain [13]: 15 min
uptake in kidney [13, 14]: 2.14 ± 0.29 %ID/g
uptake in lung [13, 14]: 4.91 ± 0.63 %ID/g
uptake in pancreas [13, 14]: 1.58 ± 0.21 %ID/g
uptake in spleen [13, 14]: 1.34 ± 0.35 %ID/g
decrease of accumulation in the lungs ([13]; from 5 to 60 min after injection): 75%
uptake in blood and muscle ([13]; throughout the duration of the study): Negligible uptake
washout of radiotracer uptake in pancreas, liver, and spleen ([13]; throughout the study (5-60 min)): did not significantly wash out

O=C(CCCN1CCC(O)(c2ccc(Cl)cc2)CC1)c1ccc(F)cc1 [haloperidol, reference compound]
decrease of ^18F-FTC-146 binding in occipital cortex ([9]; haloperidol 0.1 mg/kg 10 min before radioligand, 60–75 min after injection): 53%
